# Columns and labels:
# [1] = Penetration of fluorine 18 into dental enamel after topical application (Muhlemann biopsy); parameters: species or system children
# Text: The anticariogenic activity of the difluorohydrate of N,N'-di(hydroxy-ethyl) piperazine has been evidenced by comparison with sodium fluoride known for its cariopreventive topical properties. A comparative study has been made of the penetration into the dental enamel of the fluorine contained in the molecule according to the invention and of the fluorine contained in sodium fluoride.
# For this comparison the difluorohydrate of N,N'-di(hydroxy-ethyl) piperazine was marked at the fluorine 18, by isotopic exchange by dissolving some crystals of the product according to the invention in a solution of pure fluorine 18 without entrainer. The same was done for the sodium fluoride.
# The study of the penetration of the fluorine into the enamel was made on several teeth to compare the behavior of the product of the invention and of sodium fluoride in supplying fluorine and in the penetration of the latter into the deepest layers of the dental tissue.
# The tests were performed on 30 premolar teeth taken from normal children 9 to 11 years old. Eighteen teeth were treated by topical application of the radioactive solutions of the difluoro-hydrate of N,N'-di(hydroxy-ethyl) piperazine or of NaF adjusted to pH=3.5; the other 12 were treated with the same solutions adjusted to a pH of 7.4.
# The radioactive solutions are obtained by dissolving 69 mg of the difluorohydrate and 81.3 mg of NaF, respectively, in 1 and 3 ml of fluorine 18 solution without entrainer. Thus solutions titering 1.23% fluorine are obtained.
# As the difluorohydrate solution is already at pH=3.5, it is sufficient to acidify the NaF solution by addition of about 0.2 ml hydrochloric acid 6 M, to 3 ml of the radioactive solution.
# In this case, the difluorohydrate's nature of organic salt can be preserved and its solution neutralized at 1.23% of fluorine in 1 ml by addition of about 110 mg of its N,N'-di(hydroxyethyl) piperazine base.
# For the experimentation one determines two enamel plagues on each tooth. For this, one applies on the crowns, separated from each other by 2 or 3 mm, two round disks of a diameter of 3 mm cut out from adhesive tape. The crown is then covered with a layer of impermeable varnish. When the varnish is dry, the patches of adhesive tape are removed, thus bearing the two zones of enamel to be treated.
# The spot application of the fluorinated solution is done by means of a sponge imbibed with 0.5 ml of the solution. This sponge is inserted in a polyethylene tube to limit the surface of contact between tooth and sponge to the circumference of the enamel zone treated.
# The sampling of the enamel is done by Muhlemann's biopsy technique: A patch of blotting paper impregnated with 4 microliters of perchloric acid 2 M is applied on the trated enamel for 30 seconds. The enamel is dried with a second patch of blotting paper. It is on these patches which contain the dissolved enamel that we measure the radioactivity.
# There are given in Table I all the results relating to the acid treatment, in Table II all the results relating to the treatment at neutral pH. The fluorine values are those obtained by measuring the radioactivity of the samples.
# The columns […] and N2 represent the mass of fluorine measured on the second biopsy.
# We have marked R1 and R1 and R2 the ratios G1 /G2 and N1 /N2, and R3 the ratio. [formula] R1 and R2 permitting to compare the quantities of fluorine at the same depth. R3 permits comparing the accumulation of fluorine in the tooth.
# [2] = Solubility; assay type: physicochemical
# [3] = tested on: rats; test: in vivo; assay type: in vivo; settings: rat, oral; for Deaths: D + 10, 8 per lot
# Description: (§1) By way of example there are described below the comparative tests made on difluorohydrate of N,N'-di(hydroxyethyl) piperazine and on fluorohydrate of hexadecylamine or "ELMEX 242".
# (§2) The acute toxidity was studies in rats and in mice.
# (§3) The animals came from a homogeneous breed. The mice weighed between 19 and 21 g and the rats weighed from 120 to 140 g. The mice were grouped in lots of 10 and the rats in lots of 8.
# (§4) The administrations took place orally at a volume of 0.5 ml per 20 g of mouse and 1 ml per 100 g of rat. The LD50 was determined by the method of Lichfield and Wilcoxon.
# (§5) As regards the difluorohydrate of N,N'-di(hydroxyethyl) piperazine, the administered solution was prepared by diluting the mother solution to 65.4%, the dilutions being made after having weighed this solution. The administered dose is expressed by weight, taking account of the indicated strength of this solution.
# (§6) For the solid "ELMEX 242" an aqueous suspension was prepared with the aid of solubilizing agents (e.g. Tween-polyoxyethylene sorbitan monolaurate). A very thick suspension is then obtained which tends to foam heavily, is difficult to get into the esophageal sound, and the determination of its volume is rendered difficult by the foam.
# (§7) The results obtained with the "ELMEX" are therefore rather approximate.
# [4] = Acute oral toxicity in mice; assay type: in vivo; settings: in vivo, mouse, Lichfield and Wilcoxon
# Description: as §1, §2, §3, §4, §5, §6, §7
# [5] = tested on: mice; test: Acute oral toxicity in mice; assay type: in vivo; settings: mouse
# Description: as §1, §2, §3, §4, §5, §6, §7
structure (smiles),measurement,setting,value
"[F-].[Na+] [NaF, sodium fluoride, reference compound]",mean value of R2,"[1]; neutral medium, 12 teeth",3.6
same,"average fluorine sampled in the two biopsies, acid pH compared with neutral pH",[1]; pH 3.5 versus pH 7.4,3.6
"OCCN1CCN(CCO)CC1 [DI-IODOHYDRATE OF N,N'-DI-(BETA-HYDROXY-ETHYL) PIPERAZINE]","solubility in water, in alcohols, glycols",[2],soluble
"CCCCCCCCCCCCCCCCN [ELMEX 242, fluorohydrate of hexadecylamine]",symptoms / behavior,[3],The behavior of the animals is normal.
same,Deaths,[3]; 125 mg/kg,0
same,Deaths,[3]; 150 mg/kg,0
same,Deaths,[3]; 500 mg/kg,0
same,LD50 at 240 h,[4],1250 mg/kg
same,course: death and recovery,[5],Death occurs in a few hours; for others recovery is also fairly rapid.
same,symptoms,[5],The animals have diarrhea. The mice are totally immobile and tremble.
same,Deaths,"[5]; 600 mg/kg, D + 1, 10 per lot",0
same,Deaths,"[5]; 600 mg/kg, D + 2, 10 per lot",0
same,Deaths,"[5]; 600 mg/kg, D + 5, 10 per lot",0
same,Deaths,"[5]; 600 mg/kg, D + 10, 10 per lot",0
same,Deaths,"[5]; 800 mg/kg, D + 1, 10 per lot",0
same,Deaths,"[5]; 800 mg/kg, D + 2, 10 per lot",0
same,Deaths,"[5]; 800 mg/kg, D + 5, 10 per lot",0
same,Deaths,"[5]; 800 mg/kg, D + 10, 10 per lot",0
same,Deaths,"[5]; 1000 mg/kg, D + 1, 10 per lot",1
same,Deaths,"[5]; 1000 mg/kg, D + 2, 10 per lot",2
same,Deaths,"[5]; 1000 mg/kg, D + 5, 10 per lot",2
same,Deaths,"[5]; 1000 mg/kg, D + 10, 10 per lot",2
same,Deaths,"[5]; 1250 mg/kg, D + 1, 10 per lot",1
same,Deaths,"[5]; 1250 mg/kg, D + 2, 10 per lot",2
same,Deaths,"[5]; 1250 mg/kg, D + 5, 10 per lot",3
same,Deaths,"[5]; 1250 mg/kg, D + 10, 10 per lot",3
same,Deaths,"[5]; 1500 mg/kg, D + 1, 10 per lot",4
same,Deaths,"[5]; 1500 mg/kg, D + 2, 10 per lot",7
same,Deaths,"[5]; 1500 mg/kg, D + 5, 10 per lot",9
same,Deaths,"[5]; 1500 mg/kg, D + 10, 10 per lot",9
same,Deaths,"[5]; 1750 mg/kg, D + 1, 10 per lot",3
same,Deaths,"[5]; 1750 mg/kg, D + 2, 10 per lot",4
same,Deaths,"[5]; 1750 mg/kg, D + 5, 10 per lot",9
same,Deaths,"[5]; 1750 mg/kg, D + 10, 10 per lot",9
same,Deaths,"[5]; 2000 mg/kg, D + 1, 10 per lot",9
same,Deaths,"[5]; 2000 mg/kg, D + 2, 10 per lot",10
same,Deaths,"[5]; 2000 mg/kg, D + 5, 10 per lot",10
same,Deaths,"[5]; 2000 mg/kg, D + 10, 10 per lot",10
same,Deaths,"[5]; 2500 mg/kg, D + 1, 10 per lot",10
same,Deaths,"[5]; 2500 mg/kg, D + 2, 10 per lot",10
same,Deaths,"[5]; 2500 mg/kg, D + 5, 10 per lot",10
same,Deaths,"[5]; 2500 mg/kg, D + 10, 10 per lot",10

# Source: patent US4323550A, “Halogenohydrates of N,N-disubstituted derivatives of piperazine having anticariogenic properties” (priority 1976, dated 1982)
